Experimental data as given in ChEMBL document CHEMBL5728630, “Aryl, heteroaryl, and heterocyclic pharmaceutical compounds for treatment of medical disorders” (2021).

Target: Complement factor D (Homo sapiens, UniProt P00746)
Assay: Factor D Assay: Human Factor D (purified from human serum, Complement Technology, Inc.) at 80 nM final concentration is incubated with test compound at various concentrations for 5 min at room temperature in 50 mM Tris, 1M NaCl, pH 7.5. A synthetic substrate Z-L-Lys-SBz and DTNB (Ellman's reagent) are added to final concentrations of 100 μM each. Absorbance at 405 nm (A405) is recorded at 30 second intervals for 30 min using a microplate spectrophotometer. IC50 values are calculated by nonlinear regression of complement Factor D reaction rates as a function of test compound concentration.

Chain of Complement factor D (P00746 whole entry): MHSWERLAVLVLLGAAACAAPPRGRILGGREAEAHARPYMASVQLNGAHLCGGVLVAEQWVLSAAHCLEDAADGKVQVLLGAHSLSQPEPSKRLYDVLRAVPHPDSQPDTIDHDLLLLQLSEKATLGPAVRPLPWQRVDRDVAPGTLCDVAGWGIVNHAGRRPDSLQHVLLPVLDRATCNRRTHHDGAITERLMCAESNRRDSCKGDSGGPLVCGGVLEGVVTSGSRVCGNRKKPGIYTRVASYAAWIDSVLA

Compound	IC50 [µM]
CC(=O)c1nn(CC(=O)N2[C@H](C(=O)Nc3nc(Br)ccc3C)C[C@@]3(CF)C[C@@H]23)c2c(C)cc(-c3cnc(C)nc3)cc12	< 1
CC(=O)c1nn(CC(=O)N2[C@H](C(=O)Nc3nc(Br)ccc3CCCF)C[C@@]3(C)C[C@@H]23)c2cnc(-c3cnc(C)nc3)cc12	< 1
CC(=O)c1nn(CC(=O)N2[C@H](C(=O)Nc3nc(Br)ccc3CN3CCc4ccccc4C3)C[C@@]3(C)C[C@@H]23)c2cnc(-c3cnc(C)nc3)cc12	< 1
CC(=O)c1nn(CC(=O)N2[C@H](C(=O)Nc3nc(Br)ccc3C)C[C@@]3(C)C[C@@H]23)c2c(C(C)F)cc(-c3cnc(C)nc3)cc12 (stereo not given in full)	< 1
CC(=O)c1nn(CC(=O)N2[C@H](C(=O)Nc3nc(Br)ccc3C)C[C@@]3(C)C[C@@H]23)c2c(C)cc(-c3cnc(C4(F)COC4)nc3)cc12	< 1
CC(=O)c1nn(CC(=O)N2[C@H](C(=O)Nc3nc(Br)ccc3C)C[C@@]3(C)C[C@@H]23)c2ccc(-c3cnc(O)nc3)cc12	< 1
COCc1ccc(Br)nc1NC(=O)[C@@H]1C[C@@]2(C)C[C@H]2N1C(=O)Cn1nc(C(C)=O)c2cc(-c3cnc(C)nc3)cc(COC)c21	< 1
COc1ncc(-c2cc3c(C(C)=O)nn(CC(=O)N4[C@H](C(=O)Nc5nc(Br)ccc5C)C[C@@]5(C)C[C@@H]45)c3c(C)n2)cn1	< 1
CC(=O)c1nn(CC(=O)N2[C@H](C(=O)Nc3nc(Br)ccc3C)C[C@@]3(CN4CC(F)(F)C4)C[C@@H]23)c2cnc(-c3cnc(C)nc3)cc12	< 1
CC(=O)c1nn(CC(=O)N2[C@H](C(=O)Nc3nc(Br)ccc3C)C[C@@]3(C4COC(C)(C)O4)C[C@@H]23)c2cnc(-c3cnc(C)nc3)cc12 (stereo not given in full)	< 1
CC(=O)c1nn(CC(=O)N2[C@H](C(=O)Nc3cccc(-c4ccccc4Cl)c3F)C[C@@]3(C)C[C@@H]23)c2ccc(-c3cnc(C)nc3)cc12	< 1
COCc1ccc(Br)nc1NC(=O)[C@@H]1C[C@@]2(CNC(C)=O)C[C@H]2N1C(=O)Cn1nc(C(C)=O)c2cc(-c3cnc(C)nc3)ccc21	< 1
CC(=O)c1nn(CC(=O)N2[C@H](C(=O)Nc3nc(Br)ccc3C)C[C@@]3(CF)C[C@@H]23)c2cnc(-c3cnc(C)nc3)cc12	< 1
CC(=O)c1nn(CC(=O)N2[C@H](C(=O)Nc3cnc(C)c(Br)n3)C[C@@]3(C)C[C@@H]23)c2c(C)cc(-c3cnc(C)nc3)cc12	< 1
CC(=O)c1nn(CC(=O)N2[C@H](C(=O)Nc3nc(Br)ccc3C)C[C@@]3(CNC(=O)C4CCCC4(F)F)C[C@@H]23)c2ccc(-c3cnc(C)nc3)cc12 (stereo not given in full)	< 1
CC(=O)c1nn(CC(=O)N2[C@H](C(=O)N[C@H](C)[C@H]3CC3(Cl)Cl)C[C@@]3(C)C[C@@H]23)c2c(C)cc(-c3cnc(C)nc3)cc12	< 1
CC(=O)c1nn(CC(=O)N2[C@H](C(=O)Nc3nc(Br)ccc3C)C[C@@]3(C)C[C@@H]23)c2c(C3CC3)nc(-c3cnc(C)nc3)cc12	< 1
CC(=O)c1nn(CC(=O)N2[C@H](C(=O)Nc3nc(Br)ccc3C)C[C@@]3(CCCF)C[C@@H]23)c2cnc(-c3cnc(C)nc3)cc12	< 1
CC(=O)c1nn(CC(=O)N2[C@H](C(=O)Nc3nc(Br)ccc3C)C[C@@]3(/C=N/O)C[C@@H]23)c2cnc(-c3cnc(C)nc3)cc12	< 1
CC(=O)c1nn(CC(=O)N2[C@H](C(=O)Nc3cccc(Br)n3)C[C@@]3(C)C[C@@H]23)c2ccc(-c3cnc(O)nc3)cc12	< 1

Compound	IC50 [µM]
CC(=O)c1nn(CC(=O)N2[C@H](C(=O)Nc3nc(Br)ccc3C)C[C@@]3(CN(C)C)C[C@@H]23)c2cnc(-c3cnc(C)nc3)cc12	< 1
CC[C@@]12C[C@@H](C(=O)Nc3nc(Br)ccc3C)N(C(=O)Cn3nc(C(C)=O)c4cc(-c5cnc(C)nc5)ncc43)[C@@H]1C2	< 1
C=CCCS(=O)(=O)NC[C@@]12C[C@@H](C(=O)Nc3nc(Br)ccc3C=C)N(C(=O)Cn3nc(C(C)=O)c4cc(-c5cnc(C)nc5)ccc43)[C@@H]1C2	< 1
CC(=O)c1nn(CC(=O)N2[C@H](C(=O)Nc3nc(Br)ccc3C)C[C@@]3(CC#N)C[C@@H]23)c2c(C)cc(-c3cnc(C)nc3)cc12	< 1
CC(=O)c1nn(CC(=O)N2[C@H](C(=O)Nc3nc(Br)ccc3C)C[C@@]3(C)C[C@@H]23)c2ccc(-c3cnc(OC4CS(=O)(=O)C4)nc3)cc12	< 1
CC(=O)c1nn(CC(=O)N2[C@H](C(=O)Nc3nc(Br)ccc3C)C[C@@]3(C)C[C@@H]23)c2c(C(F)(F)F)nc(-c3cnc(C)nc3)cc12	< 1
COC(=O)Cc1ccc(Br)nc1NC(=O)[C@@H]1C[C@@H](F)CN1C(=O)Cn1nc(C(C)=O)c2cc(-c3cnc(C)nc3)ccc21	< 1
COCc1ncc(-c2cc3c(C(C)=O)nn(CC(=O)N4[C@H](C(=O)Nc5nc(Br)ccc5C)C[C@@]5(C)C[C@@H]45)c3cn2)cn1	< 1
Cc1ncc(-c2ccc3c(c2)c(C(N)=O)nn3CC(=O)N2[C@H](C(=O)Nc3nc(Br)ccc3C)C[C@@]3(C)C[C@@H]23)cn1	< 1
CC(=O)c1nn(CC(=O)N2[C@H]3C[C@@]3(C)C[C@H]2C(=O)Nc2nc(Br)ccc2C)c2ccc(-c3cnc(C)nc3)cc12	< 1
CC(=O)c1nn(CC(=O)N2[C@H](C(=O)Nc3nc(Br)ccc3C)C[C@@]3(CC#N)C[C@@H]23)c2cnc(-c3cnc(C)nc3)cc12	< 1
CC(=O)c1nn(CC(=O)N2[C@H](C(=O)Nc3cccc(-c4ccccc4Cl)c3F)C[C@@]3(C)C[C@@H]23)c2c(C)cc(-c3cnc(C)nc3)cc12	< 1
CC(=O)c1nn(CC(=O)N2[C@H](C(=O)N[C@H](C)[C@H]3CC3(Cl)Cl)C[C@@]3(C)C[C@@H]23)c2cnc(-c3cnc(C)nc3)cc12	< 1
CC(=O)c1nn(CC(=O)N2[C@H](C(=O)Nc3nc(Br)ccc3C)C[C@@]3(CNC(=O)C4CCCC4(F)F)C[C@@H]23)c2c(C)cc(-c3cnc(C)nc3)cc12 (stereo not given in full)	< 1
CC(=O)c1nn(CC(=O)N2[C@H](C(=O)Nc3nc(Br)ccc3C)C[C@@]3(CNCc4ccccc4F)C[C@@H]23)c2c(C)cc(-c3cnc(C)nc3)cc12	< 1
COCc1ccc(Br)nc1NC(=O)[C@@H]1C[C@@]2(CN(C)C)C[C@H]2N1C(=O)Cn1nc(C(C)=O)c2cc(-c3cnc(C)nc3)ccc21	< 1
CC(=O)c1nn(CC(=O)N2C[C@H](F)C[C@H]2C(=O)Nc2nc(Br)ccc2C)c2ccc(-c3cnc(OC4CS(=O)(=O)C4)nc3)cc12	< 1
CC(=O)c1nn(CC(=O)N2[C@H](C(=O)Nc3nc(Br)ccc3C)C[C@@]3(C)C[C@@H]23)c2c(C)cc(-c3cnc(O)nc3)cc12	< 1
CC(=O)c1nn(CC(=O)N2[C@H](C(=O)Nc3nc(Br)ccc3C)C[C@@]3(CNCC(F)(F)F)C[C@@H]23)c2c(C)cc(-c3cnc(C)nc3)cc12	< 1
CC(=O)c1nn(CC(=O)N2[C@H](C(=O)Nc3nc(Br)ccc3C)C[C@@]3(CNC(=O)C(F)(F)F)C[C@@H]23)c2c(C)cc(-c3cnc(C)nc3)cc12	< 1

Compound	IC50 [µM]
Cc1ncc(-c2cc(C)c3c(c2)c(C2COC2)nn3CC(=O)N2[C@H](C(=O)Nc3nc(Br)ccc3C)C[C@@]3(C)C[C@@H]23)cn1	< 1
CC(=O)c1nn(CC(=O)N2[C@H](C(=O)Nc3nc(Br)ccc3C)C[C@@]3(C)C[C@@H]23)c2cnc(-c3ccc(C)nc3F)cc12	< 1
CC(=O)c1nn(CC(=O)N2[C@H](C(=O)Nc3cccc(Br)n3)C[C@@]3(C)C[C@@H]23)c2ccc(-c3cnc(OC4CS(=O)(=O)C4)nc3)cc12	< 1
CC(=O)c1nn(CC(=O)N2[C@H](C(=O)Nc3nc(Br)ccc3C)C[C@@]3(C)C[C@@H]23)c2c(C)cc(-c3cnc(C4(O)COC4)nc3)cc12	< 1
COC[C@@]12C[C@@H](C(=O)Nc3nc(Br)ccc3C)N(C(=O)Cn3nc(C(C)=O)c4cc(-c5cnc(C)nc5)ncc43)[C@@H]1C2	< 1
CC(=O)c1nn(CC(=O)N2[C@H](C(=O)Nc3nc(Br)ccc3CN3CCC(C)(F)CC3)C[C@@]3(C)C[C@@H]23)c2cnc(-c3cnc(C)nc3)cc12	< 1
Cc1ncc(-c2cc3c(C(N)=O)nn(CC(=O)N4[C@H](C(=O)Nc5nc(Br)c(F)cc5C)C[C@@]5(C)C[C@@H]45)c3cn2)cn1	< 1
CC(=O)c1nn(CC(=O)N2[C@H](C(=O)Nc3nc(Br)ccc3C)C[C@@]3(C#N)C[C@@H]23)c2cnc(-c3cnc(C)nc3)cc12	< 1
CC(=O)c1nn(CC(=O)N2[C@H](C(=O)Nc3nc(Br)ccc3C)C[C@@]3(Cn4cc(C5CC5)nn4)C[C@@H]23)c2cnc(-c3cnc(C)nc3)cc12	< 1
CC(=O)c1nn(CC(=O)N2[C@H](C(=O)Nc3cccc(Br)n3)C[C@@]3(C)C[C@@H]23)c2c(C)cc(-c3cnc(C)nc3)cc12	< 1
CC(=O)c1nn(CC(=O)N2[C@H](C(=O)Nc3nc(Br)ccc3C)C[C@@]3(CNCc4ccccc4)C[C@@H]23)c2c(C)cc(-c3cnc(C)nc3)cc12	< 1
CC(=O)c1nn(CC(=O)N2[C@H](C(=O)Nc3nc(Br)ccc3COCCF)C[C@@]3(C)C[C@@H]23)c2cnc(-c3cnc(C)nc3)cc12	< 1
CC(=O)c1nn(CC(=O)N2[C@@H](C(=O)Nc3nc(Br)ccc3C)C[C@]3(C)C[C@H]23)c2ccc(-c3cnc(C)nc3)cc12	> 10
CC(=O)c1nn(CC(=O)N2[C@H](C(=O)Nc3nc(Br)ccc3C)C[C@@]3(CN4CC(O)C4)C[C@@H]23)c2c(C)cc(-c3cnc(C)nc3)cc12	< 1
CC(=O)c1nn(CC(=O)N2[C@H]3C[C@@]3(CF)C[C@H]2C(=O)Nc2nc(Br)ccc2C)c2cnc(-c3cnc(C)nc3)cc12	< 1
CC(=O)c1nn(CC(=O)N2[C@H](C(=O)N[C@@H](C)C(F)=C(C)C)C[C@@]3(C)C[C@@H]23)c2cnc(-c3cnc(C)nc3)cc12	< 1
C=CCCc1cc(-c2cnc(C)nc2)cc2c(C(C)=O)nn(CC(=O)N3[C@H](C(=O)Nc4nc(Br)ccc4C)C[C@@]4(COCC=C)C[C@@H]34)c12	< 1
CC(=O)c1nn(CC(=O)N2[C@H](C(=O)NCc3cccc(Cl)c3F)C[C@@]3(C)C[C@@H]23)c2c(C)cc(-c3cnc(C)nc3)cc12	< 1
CC(=O)c1nn(CC(=O)N2[C@H](C(=O)Nc3nc(Br)ccc3C)C[C@@]3(CN4CC(O)C4)C[C@@H]23)c2cnc(-c3cnc(C)nc3)cc12	< 1
CC(=O)c1nn(CC(=O)N2[C@H](C(=O)Nc3nc(Br)ccc3C)C[C@@]3(CCF)C[C@@H]23)c2cnc(-c3cnc(C)nc3)cc12	< 1
